These results are taken from US5130323A, “Pyrrolidine derivatives” (Fujisawa Pharmaceutical Co., Ltd., priority 1988, dated 1992).

The target of one experiment is T1, TXA2 synthetase (Homo sapiens, UniProt P24557).
T1 construct: human platelet microsome; purchased Ran Biochem, Israel; host or cells: human platelet microsomes, aspirin treated (APM)
T1 sequence (P24557 1-533): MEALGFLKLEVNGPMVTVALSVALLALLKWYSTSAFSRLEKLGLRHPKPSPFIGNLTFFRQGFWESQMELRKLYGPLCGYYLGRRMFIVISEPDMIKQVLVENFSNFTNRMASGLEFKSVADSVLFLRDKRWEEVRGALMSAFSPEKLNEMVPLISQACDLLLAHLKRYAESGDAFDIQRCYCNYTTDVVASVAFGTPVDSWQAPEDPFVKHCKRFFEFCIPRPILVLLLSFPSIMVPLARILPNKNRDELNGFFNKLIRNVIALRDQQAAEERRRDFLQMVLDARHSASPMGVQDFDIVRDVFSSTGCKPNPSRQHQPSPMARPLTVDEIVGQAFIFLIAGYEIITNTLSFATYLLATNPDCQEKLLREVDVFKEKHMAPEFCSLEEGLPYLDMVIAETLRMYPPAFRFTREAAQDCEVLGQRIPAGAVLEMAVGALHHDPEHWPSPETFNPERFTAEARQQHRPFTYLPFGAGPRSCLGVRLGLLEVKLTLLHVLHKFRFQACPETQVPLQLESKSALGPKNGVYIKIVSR
Put plainly: Inhibition of TXA2 synthetase. Type of experiment: biochemical. The following applies: aspirin treated human platelet microsome, PGH2 as substrate, 25° C., TXB2 measured by radioimmunoassay; read-out: IC50 (Inhibition concentration of TXB2 generation by 50%). The method, then:
Aspirin treated human platelet microsome APM, Ran Biochem, Israel) was used as a source of TXA2 synthetase. APM was suspended in 50 mM Tris/100 mM NaCl buffer (pH 7.5). 10 μl of test compound solution was added to 90 μl of APM suspension and incubated at 25° C. for 3 min. And then, 2 μl of PGH2 (10 μg/ml in aceton, Ran Biochem.) was added. After 3-min incubation period, the reaction was terminated by adding 10 μl of FeCl2 solution (25 mM in H2 O), and set aside at room temperature for 15 min and then on ice. The reaction mixture was centrifuged at 10000 rpm for 5 min at 4° C. TXB2 in the supernatant was measured by radioimmunoassay. IC50 (Inhibition concentration of TXB2 generation by 50%) were graphically determined.

Experiment [1] concerns human platelet aggregation induced by U46619. The experiment in a line: Inhibition of human platelet aggregation induced by U46619. The format is cell-based. The following applies: human platelet rich plasma, U46619 final 1.0 μM, 37° C.; read-out: IC50 (Inhibition concentration of platelet aggregation by 50%). As to the method: In the following test, the used 9,11-methanoepoxy PGH2 (U46619) is characterized pharmacologically as TXA2 mimetic agent and widely used for evaluating TXA2 antagonism of test compounds (for example, vide The Journal of Pharmacology and Experimental Therapeutics Vol. 234, pp 435-441).
Human blood was obtained from healthy male volunteers and mixed with 3.8% (w/v) sodium citrate in a ratio of 9:1. Platelet rich plasma (PRP) was prepared from the citrated blood by centrifugation at 150×g for 15 min. Platelet aggregation in PRP was studied photometrically using an aggregometer (NKK HAEMATRACER 1 . To the 225 μl of PRP, 25 μl of test compound solution was added, and then stirred at 1000 rpm for 2 min at 37° C. To the solution, 5 μl of U46619 (final 1.0 μM) was added as an aggregating inducer. IC50 (Inhibition concentration of platelet aggregation by 50% were determined graphically.

Consider `O=C(O)CCC/C=C\[C@@H]1C[C@@H](NS(=O)(=O)c2ccc(Cl)cc2)CN1Cc1cccnc1` [test compound (1), (2S,4R)-2-[(Z)-5-Carboxy-1-pentenyl]-4-(4-chlorophenylsulfonylamino)-1-(3-pyridylmethyl)pyrrolidine], for which the IC50 on TXA2 synthetase came to 0.046 µM; in experiment [1], 0.27 µM.
